Results reported in patent US7723332B2, “Aryl sulfonamides useful for modulation of the progesterone receptor” (Wyeth LLC, priority 2007, dated 2010).
pIC50: −log10 of the molar value.

Tested on: alkaline phosphatase activity in T47D cells
Assay: Effects of progestins and antiprogestins on alkaline phosphatase activity in T47D cells
Type: cell-based
Details: T47D alkaline phosphatase assay, antagonist mode in the presence of 1 nM progesterone, 24 hours; for pIC50: Homo sapiens
Experimental: Effects of Progestins and Antiprogestins on Alkaline Phosphatase Activity in T47D Cells
This example was performed to identify progestins or antiprogestins by determining a compound's effect on alkaline phosphatase activity in T47D cells.
Culture medium: DMEM:F12 (1:1) (GIBCO, BRL) supplemented with 5% (v/v) charcoal stripped fetal bovine serum (not heat-inactivated), 100 U/mL penicillin, 100 μg/mL streptomycin, and 2 mM the GlutaMax™ reagent (GIBCO, BRL).
Alkaline phosphatase assay buffer: • I. 0.1M Tris-HCl, pH 9.8, containing 0.2% the Triton® X-100 reagent • II. 0.1 M Tris-HCl, pH 9.8, containing 4 mM p-nitrophenyl phosphate (Sigma).
Frozen T47D cells were thawed in a 37° C. water bath and diluted to 280,000 cells/mL in culture medium. To each well in a 96-well plate (Falcon, Becton Dickinson Labware), 180 μL of diluted cell suspension was added. Twenty μL of reference or test compounds diluted in the culture medium was then added to each well. When testing for progestin antagonist activity, reference antiprogestins or test compounds were added in the presence of 1 nM progesterone. The cells were incubated at 37° C. in a 5% CO2/humidified atmosphere for 24 hours. NOTE: For high throughput screening, one concentration of each compound was tested at 0.3 μg/mL. Based on an average molecular weight of 300 g/mol for the compounds in the library, the concentration was approximately 1 μM. Subsequently, active compounds were tested in dose response assays to determine EC50 and IC50.
At the end of treatment, the medium was removed from the plate. Fifty μL of assay buffer I was added to each well. The plates were shaken in a titer plate shaker for 15 minutes. 150 μL of assay buffer II was then added to each well. Optical density measurements were taken at 5 minute intervals for 30 minutes at a test wavelength of 405 nm.
For reference and test compounds, a dose response curve was generated for dose (X-axis) vs. the rate of enzyme reaction (slope) (Y-axis). Square root-transformed data was used for analysis of variance and nonlinear dose response curve fitting for both agonist and antagonist modes. Huber weighting was used to down-weight the effects of outliners. EC50 or IC50 values were calculated from the retransformed values. JMP software (SAS Institute, Inc.) was used for both one-way analysis of variance and non-4 linear dose response analysis in both single dose and dose response studies.
Progesterone and trimegestone are reference progestins known in the art and typically show an EC50 of about 0.1 nM to about 2.0 nM.

SMILES | pIC50 | Active Dose
Cn1c(C#N)ccc1-c1ccc(S(=O)(=O)NC(C)(C)C)cc1 [Example 9, N-(tert-butyl)-4-(5-cyano-1-methyl-1H-pyrrol-2-yl)benzenesulfonamide] |  | 10000 nM
CC(C)CNS(=O)(=O)c1ccc(-c2ccc(C#N)n2C)cc1 [Example 6, 4-(5-cyano-1-methyl-1H-pyrrol-2-yl)-N-isobutylbenzenesulfonamide] | 7.32 | 
CN(C)S(=O)(=O)c1ccc(-c2ccc(C#N)n2C)cc1OC(F)(F)F [Example 48, 4-(5-cyano-1-methyl-1H-pyrrol-2-yl)-N,N-dimethyl-2-(trifluoromethoxy)benzenesulfonamide] | 7.20 | 
Cn1c(C#N)ccc1-c1ccc(S(N)(=O)=O)c(OC(F)(F)F)c1 [Example 46, 4-(5-cyano-1-methyl-1H-pyrrol-2-yl)-2-(trifluoromethoxy)benzenesulfonamide] | 7.12 | 
CCN(CC)S(=O)(=O)c1ccc(-c2ccc(C#N)n2C)cc1F [Example 41, 4-(5-cyano-1-methyl-1H-pyrrol-2-yl)-N,N-diethyl-2-fluorobenzenesulfonamide] | 7.21 | 
CCNS(=O)(=O)c1ccc(-c2ccc(C#N)n2C)cc1OC(F)(F)F [Example 49, 4-(5-cyano-1-methyl-1H-pyrrol-2-yl)-N-ethyl-2-(trifluoromethoxy)benzenesulfonamide] | 6.92 | 
CCN(CC)S(=O)(=O)c1ccc(-c2ccc(C#N)n2C)cc1 [Example 8, 4-(5-cyano-1-methyl-1H-pyrrol-2-yl)-N,N-diethylbenzenesulfonamide] | 7.32 | 
CC(C)NS(=O)(=O)c1ccc(-c2ccc(C#N)n2C)cc1C(F)(F)F [Example 23, 4-(5-cyano-1-methyl-1H-pyrrol-2-yl)-N-isopropyl-2-(trifluoromethyl)benzenesulfonamide] | 7.11 | 
Cn1c(C#N)ccc1-c1ccc(S(=O)(=O)N2CCCC2)cc1F [Example 37, 5-[2-fluoro-4-(pyrrolidin-1-ylsulfonyl)phenyl]-1-methyl-1H-pyrrole-2-carbonitrile] | 6.82 | 
Cn1c(C#N)ccc1-c1ccc(S(=O)(=O)NC2CCC2)c(F)c1 [Example 45, 4-(5-cyano-1-methyl-1H-pyrrol-2-yl)-N-cyclobutyl-2-fluorobenzenesulfonamide] | 7.00 | 
Cn1c(C#N)ccc1-c1cc(F)c(S(=O)(=O)NC2CC2)cc1F [Example 61, 4-(5-cyano-1-methyl-1H-pyrrol-2-yl)-N-cyclopropyl-2,5-difluorobenzenesulfonamide] |  | 30 nM
Cn1c(C#N)ccc1-c1ccc(S(=O)(=O)N2CCCCC2)cc1 [Example 11, 1-methyl-5-[4-(piperidin-1-ylsulfonyl)phenyl]-1H-pyrrole-2-carbonitrile] | 6.88 | 
Cn1c(C#N)ccc1-c1cc(F)c(S(=O)(=O)NCC2CC2)cc1F [Example 62, 4-(5-cyano-1-methyl-1H-pyrrol-2-yl)-N-(cyclopropylmethyl)-2,5-difluorobenzenesulfonamide] | 6.79 | 
CC(C)NS(=O)(=O)c1cc(F)c(-c2ccc(C#N)n2C)cc1F [Example 60, 4-(5-cyano-1-methyl-1H-pyrrol-2-yl)-2,5-difluoro-N-isopropylbenzenesulfonamide] | 7.31 | 
Cn1c(C#N)ccc1-c1ccc(S(=O)(=O)n2cccc2)cc1 [Example 18, 1-methyl-5-[4-(1H-pyrrol-1-ylsulfonyl)phenyl]-1H-pyrrole-2-carbonitrile] | 7.32 | 
Cn1c(C#N)ccc1-c1ccc(S(N)(=O)=O)cc1F [Example 30, 4-(5-cyano-1-methyl-1H-pyrrol-2-yl)-3-fluorobenzenesulfonamide] | 7.04 | 
CCN(CC)S(=O)(=O)c1ccc(-c2ccc(C#N)n2C)cc1C(F)(F)F [Example 22, 4-(5-cyano-1-methyl-1H-pyrrol-2-yl)-N,N-diethyl-2-(trifluoromethyl)benzenesulfonamide] | 7.09 | 
Cn1c(C#N)ccc1-c1ccc(S(=O)(=O)NC2CCC2)c(OC(F)(F)F)c1 [Example 56, 4-(5-cyano-1-methyl-1H-pyrrol-2-yl)-N-cyclobutyl-2-(trifluoromethoxy)benzenesulfonamide] |  | 30 nM
Cn1c(C#N)ccc1-c1ccc(S(=O)(=O)NC2CC2)c(F)c1 [Example 43, 4-(5-cyano-1-methyl-1H-pyrrol-2-yl)-N-cyclopropyl-2-fluorobenzenesulfonamide] |  | 30 nM
Cn1c(C#N)ccc1-c1ccc(S(=O)(=O)N2CCOCC2)cc1 [Example 12, 1-methyl-5-[4-(morpholin-4-ylsulfonyl)phenyl]-1H-pyrrole-2-carbonitrile] | 6.72 | 
CN(C)S(=O)(=O)c1ccc(-c2ccc(C#N)n2C)cc1C(F)(F)F [Example 20, 4-(5-cyano-1-methyl-1H-pyrrol-2-yl)-N,N-dimethyl-2-(trifluoromethyl)benzenesulfonamide] | 7.09 | 

More lines, main results first:

pIC50 | SMILES | Active Dose
7.88 | CCNS(=O)(=O)c1ccc(-c2ccc(C#N)n2C)c(F)c1 [Example 33, 4-(5-cyano-1-methyl-1H-pyrrol-2-yl)-N-ethyl-3-fluorobenzenesulfonamide] | 
7.64 | Cn1c(C#N)ccc1-c1ccc(S(=O)(=O)N2CCCC2)c(OC(F)(F)F)c1 [Example 53, 1-methyl-5-[4-(pyrrolidin-1-ylsulfonyl)-3-(trifluoromethoxy)phenyl]-1H-pyrrole-2-carbonitrile] | 
7.34 | CCNS(=O)(=O)c1ccc(-c2ccc(C#N)n2C)cc1C(F)(F)F [Example 24, 4-(5-cyano-1-methyl-1H-pyrrol-2-yl)-N-ethyl-2-(trifluoromethyl)benzenesulfonamide] | 
7.62 | CCCNS(=O)(=O)c1ccc(-c2ccc(C#N)n2C)cc1 [Example 4, 4-(5-cyano-1-methyl-1H-pyrrol-2-yl)-N-propylbenzenesulfonamide] | 
7.86 | Cn1c(C#N)ccc1-c1ccc(S(=O)(=O)NC2CCC2)cc1 [Example 13, 4-(5-cyano-1-methyl-1H-pyrrol-2-yl)-N-cyclobutylbenzenesulfonamide] | 
8.18 | Cn1c(C#N)ccc1-c1ccc(S(=O)(=O)NC2CC2)cc1 [Example 14, 4-(5-cyano-1-methyl-1H-pyrrol-2-yl)-N-cyclopropylbenzenesulfonamide] | 
7.46 | Cn1c(C#N)ccc1-c1ccc(S(=O)(=O)NCC2CC2)c(C(F)(F)F)c1 [Example 28, 4-(5-cyano-1-methyl-1H-pyrrol-2-yl)-N-(cyclopropylmethyl)-2-(trifluoromethyl)benzenesulfonamide] | 
8.01 | Cn1c(C#N)ccc1-c1ccc(S(=O)(=O)NC2CC2)cc1F [Example 38, 4-(5-cyano-1-methyl-1H-pyrrol-2-yl)-N-cyclopropyl-3-fluorobenzenesulfonamide] | 
7.58 | CCCNS(=O)(=O)c1ccc(-c2ccc(C#N)n2C)c(F)c1 [Example 36, 4-(5-cyano-1-methyl-1H-pyrrol-2-yl)-3-fluoro-N-propylbenzenesulfonamide] | 
7.77 | Cn1c(C#N)ccc1-c1ccc(S(=O)(=O)NC2CCC2)c(C(F)(F)F)c1 [Example 29, 4-(5-cyano-1-methyl-1H-pyrrol-2-yl)-N-cyclobutyl-2-(trifluoromethyl)benzenesulfonamide] | 
7.56 | CC(C)NS(=O)(=O)c1ccc(-c2ccc(C#N)n2C)cc1 [Example 5, 4-(5-cyano-1-methyl-1H-pyrrol-2-yl)-N-isopropylbenzenesulfonamide] | 
7.49 | CC(C)NS(=O)(=O)c1ccc(-c2ccc(C#N)n2C)cc1OC(F)(F)F [Example 51, 4-(5-cyano-1-methyl-1H-pyrrol-2-yl)-N-isopropyl-2-(trifluoromethoxy)benzenesulfonamide] | 
7.91 | Cn1c(C#N)ccc1-c1ccc(S(=O)(=O)NCC2CC2)c(OC(F)(F)F)c1 [Example 55, 4-(5-cyano-1-methyl-1H-pyrrol-2-yl)-N-(cyclopropylmethyl)-2-(trifluoromethoxy)benzenesulfonamide] | 
7.76 | CCCNS(=O)(=O)c1ccc(-c2ccc(C#N)n2C)cc1C(F)(F)F [Example 25, 4-(5-cyano-1-methyl-1H-pyrrol-2-yl)-N-propyl-2-(trifluoromethyl)benzenesulfonamide] | 
7.86 | CNS(=O)(=O)c1ccc(-c2ccc(C#N)n2C)cc1 [Example 1, 4-(5-cyano-1-methyl-1H-pyrrol-2-yl)-N-methylbenzenesulfonamide] | 
7.34 | Cn1c(C#N)ccc1-c1ccc(S(=O)(=O)NCC2CC2)c(F)c1 [Example 44, 4-(5-cyano-1-methyl-1H-pyrrol-2-yl)-N-(cyclopropylmethyl)-2-fluorobenzenesulfonamide] | 
